Measured values taken from PubChem BioAssay AID256 (DTP/NCI, 2004).
Toxic doses and inconclusive results are not listed. The calls were made as follows: active = survival T/C of 150% or more; inactive = T/C below 125% in these data.

System: CD2F1 mice, L1210 leukemia ip, survival T/C
Assay: NCI In Vivo Anticancer Drug Screen. Data for tumor model L1210 Leukemia (intraperitoneal) in CD2F1 (CDF1) mice
Settings: higher = longer survival
Procedure, shortened: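 Activity against a transplanted murine tumor was judged by comparing the compound group with a vehicle group. The outcome in the treated animals was divided by that in the controls.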

[1] = endpoint: mean survival time, dose: 100.0 mg/kg/injection, schedule: Q04DX003 (ip), vehicle: saline with Tween-80
[2] = endpoint: mean survival time, dose: 100.0 mg/kg/injection, schedule: Q01DX001 (ip), vehicle: saline with Tween-80
[3] = endpoint: mean survival time, dose: 200.0 mg/kg/injection, schedule: Q01DX001 (ip), vehicle: saline with Tween-80
[4] = endpoint: mean survival time, dose: 400.0 mg/kg/injection, schedule: Q01DX001 (ip), vehicle: saline with Tween-80
[5] = endpoint: mean survival time, dose: 25.0 mg/kg/injection, schedule: Q01DX009 (ip), vehicle: saline with Tween-80
[6] = endpoint: mean survival time, dose: 50.0 mg/kg/injection, schedule: Q01DX009 (ip), vehicle: saline with Tween-80
[7] = endpoint: mean survival time, dose: 100.0 mg/kg/injection, schedule: Q01DX009 (ip), vehicle: saline with Tween-80
[8] = endpoint: mean survival time, dose: 200.0 mg/kg/injection, schedule: Q01DX009 (ip), vehicle: saline with Tween-80
[9] = endpoint: mean survival time, dose: 100.0 mg/kg/injection, schedule: Q01DX009 (ip), vehicle: other

Measured: T/C

CC[C@@H](C)[C@@H]1NC(=O)C(NC(=O)C(CC(C)C)N(C)C(=O)C2CCCN2C(=O)C(C)O)C(C)OC(=O)C(Cc2ccc(OC)cc2)N(C)C(=O)C2CCCN2C(=O)C(CC(C)C)NC(=O)C(C)C(=O)C(C(C)C)OC(=O)C[C@H]1O (stereo not given in full)
inactive: endpoint: median survival time, dose: 10.0 micrograms/kg/injection, schedule: Q01DX009 (ip), vehicle: distilled water + alcohol 104 % of control | endpoint: median survival time, dose: 25.0 micrograms/kg/injection, schedule: Q01DX009 (ip), vehicle: distilled water + alcohol 111 % of control | endpoint: median survival time, dose: 40.0 micrograms/kg/injection, schedule: Q01DX009 (ip), vehicle: distilled water + alcohol 104 % of control | endpoint: median survival time, dose: 50.0 micrograms/kg/injection, schedule: Q01DX009 (ip), vehicle: distilled water + alcohol 111 % of control | endpoint: median survival time, dose: 80.0 micrograms/kg/injection, schedule: Q01DX009 (ip), vehicle: distilled water + alcohol 112 % of control | endpoint: median survival time, dose: 100.0 micrograms/kg/injection, schedule: Q01DX009 (ip), vehicle: distilled water + alcohol 121 % of control | endpoint: median survival time, dose: 160.0 micrograms/kg/injection, schedule: Q01DX009 (ip), vehicle: distilled water + alcohol 112 % of control

CCOC(=O)/C(C#N)=C\c1cc([N+](=O)[O-])ccc1Cl
inactive: [1] 89 % of control | endpoint: mean survival time, dose: 200.0 mg/kg/injection, schedule: Q04DX003 (ip), vehicle: saline with Tween-80 108 % of control | endpoint: mean survival time, dose: 400.0 mg/kg/injection, schedule: Q04DX003 (ip), vehicle: saline with Tween-80 108 % of control

CC1([CH2][Hg][Cl])Cc2ccccc2O1 (stereo not given)
inactive: endpoint: mean survival time, dose: 1.56 mg/kg/injection, schedule: Q01DX009 (ip), vehicle: saline with Tween-80 91 % of control | endpoint: mean survival time, dose: 3.13 mg/kg/injection, schedule: Q01DX009 (ip), vehicle: saline with Tween-80 94 % of control | endpoint: mean survival time, dose: 6.25 mg/kg/injection, schedule: Q01DX009 (ip), vehicle: saline with Tween-80 101 % of control

CCCCCCCCCCCCCCCCOc1ccc(C(=O)OC)cc1NS(=O)(=O)c1ccc(C(=O)O)cc1
inactive: [2] 96 % of control | endpoint: mean survival time, dose: 100.0 mg/kg/injection, schedule: Q01DX009 (ip), vehicle: Klucel (hydroxypropylcellulose) (HPC) 98 % of control | [3] 98 % of control | endpoint: mean survival time, dose: 200.0 mg/kg/injection, schedule: Q01DX009 (ip), vehicle: Klucel (hydroxypropylcellulose) (HPC) 95 % of control | [4] 91 % of control | endpoint: mean survival time, dose: 400.0 mg/kg/injection, schedule: Q01DX009 (ip), vehicle: Klucel (hydroxypropylcellulose) (HPC) 98 % of control

CC1(C)CC(=O)c2cc([C@@H]3OC[C@@H](O)[C@H]3O)[nH]c2C1
inactive: endpoint: median survival time, dose: 12.5 mg/kg/injection, schedule: Q01DX005 (ip), vehicle: water 101 % of control | endpoint: median survival time, dose: 25.0 mg/kg/injection, schedule: Q01DX005 (ip), vehicle: water 101 % of control | endpoint: median survival time, dose: 50.0 mg/kg/injection, schedule: Q01DX005 (ip), vehicle: water 101 % of control | endpoint: median survival time, dose: 100.0 mg/kg/injection, schedule: Q01DX005 (ip), vehicle: water 94 % of control | endpoint: median survival time, dose: 200.0 mg/kg/injection, schedule: Q01DX005 (ip), vehicle: water 96 % of control

COc1ccc(-c2nccc3cc(OC)c(OC)cc23)cc1OC
inactive: endpoint: mean survival time, dose: 12.5 mg/kg/injection, schedule: Q01DX009 (ip), vehicle: water 95 % of control | endpoint: mean survival time, dose: 25.0 mg/kg/injection, schedule: Q01DX009 (ip), vehicle: water 95 % of control | endpoint: mean survival time, dose: 50.0 mg/kg/injection, schedule: Q01DX009 (ip), vehicle: water 103 % of control

O=C1OC(=O)C2C3OC(C4CN=NC43)C12 (stereo not given)
inactive: endpoint: mean survival time, dose: 100.0 mg/kg/injection, schedule: Q04DX002 (ip), vehicle: saline with Tween-80 112 % of control | endpoint: mean survival time, dose: 200.0 mg/kg/injection, schedule: Q04DX002 (ip), vehicle: saline with Tween-80 118 % of control

CC/C(=C/c1ccc2c(c1)OCO2)[N+](=O)[O-]
inactive: [2] 105 % of control

COC1OC2COc3ccccc3OC2C(N)C1Nc1ccccc1 (stereo not given)
inactive: endpoint: mean survival time, dose: 75.0 mg/kg/injection, schedule: Q01DX001 (ip), vehicle: saline with Tween-80 101 % of control | endpoint: mean survival time, dose: 150.0 mg/kg/injection, schedule: Q01DX001 (ip), vehicle: saline with Tween-80 101 % of control | endpoint: mean survival time, dose: 300.0 mg/kg/injection, schedule: Q01DX001 (ip), vehicle: saline with Tween-80 100 % of control

c1ccc(CCNCc2ccccc2)cc1
inactive: [5] 94 % of control | [6] 98 % of control | endpoint: mean survival time, dose: 50.0 mg/kg/injection, schedule: Q04DX003 (ip), vehicle: saline with Tween-80 104 % of control | [7] 88 % of control | [1] 97 % of control

CC(/C=N\O)=N\O
inactive: [2] 97 % of control | [3] 103 % of control

Cc1nc(=S)c2ccccc2[nH]1
inactive: endpoint: mean survival time, dose: 100.0 mg/kg/injection, schedule: Q01DX001 (ip), vehicle: Klucel (hydroxypropylcellulose) (HPC) 97 % of control | endpoint: mean survival time, dose: 200.0 mg/kg/injection, schedule: Q01DX001 (ip), vehicle: Klucel (hydroxypropylcellulose) (HPC) 94 % of control | endpoint: mean survival time, dose: 400.0 mg/kg/injection, schedule: Q01DX001 (ip), vehicle: Klucel (hydroxypropylcellulose) (HPC) 100 % of control

CC[C@H](CC[C@@H](C)C1CC[C@H]2[C@@H]3CC=C4C[C@@H](OP(=O)(N5CC5)N5CC5)CC[C@]4(C)[C@H]3CC[C@]12C)C(C)C (stereo not given in full)
inactive: endpoint: mean survival time, dose: 12.5 mg/kg/injection, schedule: Q01DX009 (ip), vehicle: saline with Tween-80 97 % of control | [5] 92 % of control | [6] 93 % of control | [7] 92 % of control | [8] 108 % of control | endpoint: mean survival time, dose: 400.0 mg/kg/injection, schedule: Q01DX009 (ip), vehicle: saline with Tween-80 97 % of control

N#CC(c1c[nH]c2ccccc12)N1CCOCC1 (stereo not given)
inactive: endpoint: mean survival time, dose: 25.0 mg/kg/injection, schedule: Q04DX002 (ip), vehicle: saline with Tween-80 105 % of control | endpoint: mean survival time, dose: 50.0 mg/kg/injection, schedule: Q04DX002 (ip), vehicle: saline with Tween-80 100 % of control

Cc1cc(C)c(NS(=O)(=O)c2ccccc2)c(C)n1
inactive: [2] 103 % of control | [3] 104 % of control | [4] 104 % of control

O=C(O)c1cn(C2OC(CO)C(O)C2O)c2nc[nH]c(=O)c12 (stereo not given)
inactive: endpoint: median survival time, dose: 8.63 mg/kg/injection, schedule: Q01DX005 (ip), vehicle: saline with Tween-80 103 % of control | endpoint: median survival time, dose: 17.25 mg/kg/injection, schedule: Q01DX005 (ip), vehicle: saline with Tween-80 101 % of control | endpoint: median survival time, dose: 34.5 mg/kg/injection, schedule: Q01DX005 (ip), vehicle: saline with Tween-80 108 % of control | endpoint: median survival time, dose: 69.0 mg/kg/injection, schedule: Q01DX005 (ip), vehicle: saline with Tween-80 104 % of control | endpoint: median survival time, dose: 138.0 mg/kg/injection, schedule: Q01DX005 (ip), vehicle: saline with Tween-80 110 % of control

CCC(C)Nc1ccc(N)cc1 (stereo not given)
inactive: endpoint: mean survival time, dose: 0.09 mg/kg/injection, schedule: Q01DX009 (ip), vehicle: Klucel (hydroxypropylcellulose) (HPC) 103 % of control | endpoint: mean survival time, dose: 0.18 mg/kg/injection, schedule: Q01DX009 (ip), vehicle: Klucel (hydroxypropylcellulose) (HPC) 94 % of control | endpoint: mean survival time, dose: 0.37 mg/kg/injection, schedule: Q01DX009 (ip), vehicle: Klucel (hydroxypropylcellulose) (HPC) 103 % of control | endpoint: mean survival time, dose: 0.75 mg/kg/injection, schedule: Q01DX009 (ip), vehicle: Klucel (hydroxypropylcellulose) (HPC) 103 % of control | endpoint: mean survival time, dose: 1.5 mg/kg/injection, schedule: Q01DX009 (ip), vehicle: Klucel (hydroxypropylcellulose) (HPC) 102 % of control | endpoint: mean survival time, dose: 3.0 mg/kg/injection, schedule: Q01DX009 (ip), vehicle: Klucel (hydroxypropylcellulose) (HPC) 94 % of control

C=CCOCC(O)CNc1ccccc1 (stereo not given)
inactive: [6] 101 % of control | [7] 101 % of control | [8] 96 % of control

O=NN1CC2CCC1CC2
inactive: endpoint: mean survival time, dose: 5.0 mg/kg/injection, schedule: Q01DX001 (ip), vehicle: saline with Tween-80 98 % of control | endpoint: mean survival time, dose: 10.0 mg/kg/injection, schedule: Q01DX001 (ip), vehicle: saline with Tween-80 101 % of control

[O-][n+]1cccc2ccc3ccccc3c21
inactive: endpoint: mean survival time, dose: 50.0 mg/kg/injection, schedule: Q01DX009 (ip), vehicle: other 101 % of control | [9] 101 % of control

O=C(CC(O)(C(F)(F)F)C(F)(F)F)c1ccc(F)cc1
inactive: [9] 98 % of control | endpoint: mean survival time, dose: 200.0 mg/kg/injection, schedule: Q01DX009 (ip), vehicle: other 98 % of control | endpoint: mean survival time, dose: 400.0 mg/kg/injection, schedule: Q01DX009 (ip), vehicle: other 98 % of control

CCCCCc1cc(/C=C2/N=C(c3ccc[nH]3)C=C2OC)[nH]c1C
inactive: endpoint: mean survival time, dose: 0.25 mg/kg/injection, schedule: Q01DX009 (ip), vehicle: saline with Tween-80 92 % of control | endpoint: mean survival time, dose: 0.5 mg/kg/injection, schedule: Q01DX009 (ip), vehicle: saline with Tween-80 97 % of control | endpoint: mean survival time, dose: 1.0 mg/kg/injection, schedule: Q01DX009 (ip), vehicle: saline with Tween-80 101 % of control | endpoint: mean survival time, dose: 2.0 mg/kg/injection, schedule: Q01DX009 (ip), vehicle: saline with Tween-80 103 % of control | endpoint: mean survival time, dose: 4.0 mg/kg/injection, schedule: Q01DX009 (ip), vehicle: saline with Tween-80 92 % of control
